# Results taken from ChEMBL document CHEMBL1128109, “Phenolic replacements for cysteine in farnesyl transferase inhibitors based on CVFM” (Bioorg Med Chem Lett, 1995).
# Target: T1, Protein farnesyltransferase (Rattus norvegicus, UniProt Q02293+Q04631)
# Assay: Inhibition of farnesyl transferase
# Assay type: protein-complex assay
row,SMILES,IC50 [µM]
1,CC(C)[C@H](NCc1cc(F)ccc1O)C(=O)N[C@@H](Cc1ccccc1)C(=O)N[C@@H](CC[S+](C)[O-])C(=O)O (some centres undefined),1.6
2,CC[C@H](C)[C@H](NC(=O)[C@@H](NC(=O)[C@@H](N)CO)C(C)C)C(=O)N[C@@H](CCSC)C(=O)O,> 100
3,CSCC[C@H](NC(=O)[C@H](Cc1ccccc1)NC(=O)[C@@H](NCc1cccc(OC/C=C(\C)CC/C=C(\C)CCC=C(C)C)c1O)C(C)C)C(=O)O,70
4,CSCC[C@H](NC(=O)[C@H](Cc1ccccc1)NC(=O)[C@@H](NCc1ccccc1SC(c1ccccc1)c1ccccc1)C(C)C)C(=O)O,~100
5,CSCC[C@H](NC(=O)[C@H](Cc1ccccc1)NC(=O)[C@@H](NCc1c(O)ccc2ccccc12)C(C)C)C(=O)O,6.3
6,CSCC[C@H](NC(=O)[C@H](Cc1ccccc1)NC(=O)[C@@H](NCc1ccccc1S)C(C)C)C(=O)O,22
7,COCCOCOc1ccc(Cl)cc1CN[C@H](C(=O)N[C@@H](Cc1ccccc1)C(=O)N[C@@H](CCSC)C(=O)O)C(C)C,0.76
8,CSCC[C@H](NC(=O)[C@H](Cc1ccccc1)NC(=O)[C@@H](NCc1ccc(O)cc1)C(C)C)C(=O)O,17
9,CSCC[C@H](NC(=O)[C@H](Cc1ccccc1)NC(=O)[C@@H](NCc1ccccc1)C(C)C)C(=O)O,21
10,CSCC[C@H](NC(=O)[C@H](Cc1ccccc1)NC(=O)[C@@H](NC(c1ncccc1O)c1ncccc1O)C(C)C)C(=O)O,30
11,CSCC[C@H](NC(=O)[C@H](Cc1ccccc1)NC[C@@H](NCc1cc(Cl)ccc1O)C(C)C)C(=O)O,2.3
12,CC[C@H](C)[C@H](NC(=O)[C@@H](NC(=O)[C@@H](N)CS)C(C)C)C(=O)N[C@@H](CCSC)C(=O)O,0.25
13,COCCOCOc1ccc(C(F)(F)F)cc1CN[C@H](C(=O)N[C@@H](Cc1ccccc1)C(=O)N[C@@H](CCSC)C(=O)O)C(C)C,16

# Continued, values first:
row,IC50 [µM],SMILES
1,2.5,CSCC[C@H](NC(=O)[C@H](Cc1ccccc1)NC(=O)[C@@H](NCc1cccc(F)c1O)C(C)C)C(=O)O
2,0.5,CSCC[C@H](NC(=O)[C@H](Cc1ccccc1)NC(=O)[C@@H](NCc1cc(Cl)ccc1O)C(C)C)C(=O)O
3,2.1,CSCC[C@H](NC(=O)[C@H](Cc1ccccc1)NC(=O)[C@@H](NCc1cc(C(F)(F)F)ccc1O)C(C)C)C(=O)O
4,~100,CCCOC(=O)c1ccc(O)c(CN[C@H](C(=O)N[C@@H](Cc2ccccc2)C(=O)N[C@@H](CCSC)C(=O)O)C(C)C)c1
5,0.45,CSCC[C@H](NC(=O)[C@H](Cc1ccccc1)NC(=O)[C@@H](NCc1cc(Br)ccc1O)C(C)C)C(=O)O
6,24,CSCC[C@H](NC(=O)[C@H](Cc1ccccc1)NC(=O)[C@@H](NCc1cc(O)ccc1O)C(C)C)C(=O)O
7,2.4,CSCC[C@H](NC(=O)[C@H](Cc1ccccc1)NC(=O)[C@@H](NCc1ccccc1O)C(C)C)C(=O)O
8,3.8,COc1ccc(O)c(CN[C@H](C(=O)N[C@@H](Cc2ccccc2)C(=O)N[C@@H](CCSC)C(=O)O)C(C)C)c1
9,30,CSCC[C@H](NC(=O)[C@H](Cc1ccccc1)NC(=O)[C@@H](NCc1ncccc1O)C(C)C)C(=O)O
10,13,CSCC[C@H](NC(=O)[C@H](Cc1ccccc1)NC(=O)[C@@H](NCc1cccc(O)c1)C(C)C)C(=O)O

# Target: T1, Protein farnesyltransferase
# Assay: Inhibitory activity against Farnesyl transferase; 8.5-27.0
# Assay type: protein-complex assay
row,IC50 [µM],SMILES
1,8.5,CSCC[C@H](NC(=O)[C@H](Cc1ccccc1)NC(=O)[C@@H](NCc1cc(C(=O)O)ccc1O)C(C)C)C(=O)O
